Experimental data reported in US8987258B2 (priority 2008, dated 2015).

Target: T1, SIRT1 (Homo sapiens, UniProt Q96EB6)
T1 sequence (Q96EB6 1-747): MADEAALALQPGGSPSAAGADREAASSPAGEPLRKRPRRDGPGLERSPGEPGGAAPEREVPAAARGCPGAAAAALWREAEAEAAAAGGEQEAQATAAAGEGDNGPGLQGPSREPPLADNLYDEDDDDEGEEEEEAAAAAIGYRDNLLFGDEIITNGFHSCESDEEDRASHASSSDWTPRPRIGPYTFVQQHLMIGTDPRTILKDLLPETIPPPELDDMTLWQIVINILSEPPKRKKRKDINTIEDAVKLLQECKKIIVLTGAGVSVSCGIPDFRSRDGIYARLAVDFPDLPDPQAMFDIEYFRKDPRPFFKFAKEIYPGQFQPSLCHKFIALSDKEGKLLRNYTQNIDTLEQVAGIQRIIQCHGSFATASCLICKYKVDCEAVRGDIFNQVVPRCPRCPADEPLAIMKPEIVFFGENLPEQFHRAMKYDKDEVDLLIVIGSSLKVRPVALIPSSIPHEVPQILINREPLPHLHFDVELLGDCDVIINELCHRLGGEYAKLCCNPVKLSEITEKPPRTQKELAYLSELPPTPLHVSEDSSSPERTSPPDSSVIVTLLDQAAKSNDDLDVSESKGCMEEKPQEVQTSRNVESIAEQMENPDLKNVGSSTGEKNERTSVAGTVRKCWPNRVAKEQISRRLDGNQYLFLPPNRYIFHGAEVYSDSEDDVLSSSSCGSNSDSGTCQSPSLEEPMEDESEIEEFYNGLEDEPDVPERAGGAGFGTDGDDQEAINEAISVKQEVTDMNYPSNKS
Experiment: Mass spectrometry based SIRT1 deacetylase activation assay
Format: biochemical
Settings: for EC1.5 μM: 0.5 μM peptide substrate, 120 μM βNAD+, 10 nM SIRT1, 25 min, 25° C.; for Emax: 25 min, mass spectrometry assay, read-out: % Fold Act. (percent maximum fold activation)

| SMILES | EC1.5 μM | Emax |
| --- | --- | --- |
| Cc1cnc(NC(=O)c2cccc3c(=O)cc(-c4ccccn4)oc23)s1 [Compound 238] | C (EC1.5>25 μM) | < 200% |
| O=C(Nc1cccc2c(=O)cc(-c3ccccc3N3CCOCC3)oc12)c1cscn1 [Compound 240] | B (EC1.5 1-25 μM) | > 200% |
| O=C(Nc1cccc2c(=O)cc(-c3ccccc3C(F)(F)F)oc12)c1cccc(CN2CCOCC2)c1 [Compound 328] | B (EC1.5 1-25 μM) | > 200% |
| Cc1ccccc1-c1cc(=O)c2cccc(NC(=O)c3cscn3)c2o1 [Compound 274] | C (EC1.5>25 μM) | < 200% |
| O=C(Nc1cccc2c(=O)cc(-c3ccccc3C(F)(F)F)oc12)c1cncc(N2CCOCC2)n1 [Compound 316] | A (EC1-5<1.0) | > 200% |
| CN1CCCC1C(=O)Nc1cccc2c(=O)cc(-c3ccccc3C(F)(F)F)oc12 (centres unmarked) [Compound 317] | B (EC1.5 1-25 μM) | < 200% |
| O=C(Nc1cccc2c(=O)cc(-c3ccc(OC(F)(F)F)cc3)oc12)c1cnccn1 [Compound 233] | C (EC1.5>25 μM) | < 200% |
| Cc1cnc(NC(=O)c2cccc3c(=O)cc(-c4ccccc4Cl)oc23)s1 [Compound 270] | C (EC1.5>25 μM) | < 200% |
| COc1ccccc1-c1cc(=O)c2cccc(NC(=O)c3cscn3)c2o1 [Compound 255] | C (EC1.5>25 μM) | < 200% |
| O=C(Nc1cccc2c(=O)cc(-c3cc(F)ccc3F)oc12)c1cnccn1 [Compound 292] | C (EC1.5>25 μM) | < 200% |
| O=C(Nc1cccc2c(=O)cc(-c3ccccc3C(F)(F)F)oc12)c1ncccn1 [Compound 252] | A (EC1-5<1.0) | > 200% |
| O=C(Nc1cccc2c(=O)cc(-c3ccccc3F)oc12)c1cnccn1 [Compound 278] | C (EC1.5>25 μM) | < 200% |
| Cc1cnc(NC(=O)c2cccc3c(=O)cc(-c4ccccc4OC(F)(F)F)oc23)s1 [Compound 275] | C (EC1.5>25 μM) | < 200% |
| O=C(Nc1cccc2c(=O)cc(-c3cccc(Br)c3)oc12)c1cscn1 [Compound 230] |  | < 200% |
| O=C(Nc1cccc2c(=O)cc(-c3c(F)cccc3F)oc12)c1cnccn1 [Compound 290] | C (EC1.5>25 μM) | < 200% |
| O=C(Nc1cccc2c(=O)cc(-c3ccc(N4CCOCC4)cc3)oc12)c1cscn1 [Compound 229] | C (EC1.5>25 μM) | < 200% |
| Cc1cnc(NC(=O)c2cccc3c(=O)cc(-c4cccnc4C(F)(F)F)oc23)s1 [Compound 305, N-(5-methylthiazol-2-yl)-4-oxo-2-(2-(trifluoromethyl)pyridin-3-yl)-4H-chromene-8-carboxamide] | C (EC1.5>25 μM) | < 200% |
| O=C(Nc1cccc2c(=O)cc(-c3ccccc3C(F)(F)F)oc12)c1cccc(N2CCCC2)n1 [Compound 323] | A (EC1-5<1.0) | > 200% |
| O=C(Nc1cccc2c(=O)cc(-c3ccccc3Cl)oc12)c1cccc(N2CCCC2)n1 [Compound 325] | A (EC1-5<1.0) | > 200% |
| O=C(Nc1cccnc1)c1cccc2c(=O)cc(-c3cccc(C(F)(F)F)c3)oc12 [Compound 224, 4-oxo-N-(pyridin-3-yl)-2-(3-(trifluoromethyl)phenyl)-4H-chromene-8-carboxamide] | C (EC1.5>25 μM) | < 200% |
| O=C(Nc1cccc2c(=O)cc(-c3cccc(C(F)(F)F)c3)oc12)c1cscn1 [Compound 204, N-(4-oxo-2-(3-(trifluoromethyl)phenyl)-4H-chromen-8-yl)thiazole-4-carboxamide] | B (EC1.5 1-25 μM) | < 200% |
| O=C(Nc1ccccn1)c1cccc2c(=O)cc(-c3cccc(N4CCOCC4)c3)oc12 [Compound 209] | C (EC1.5>25 μM) | < 200% |

Continued, values first:

| EC1.5 μM | Emax | SMILES |
| --- | --- | --- |
| C (EC1.5>25 μM) | < 200% | CS(=O)(=O)c1cccc(-c2cc(=O)c3cccc(C(=O)Nc4nccs4)c3o2)c1 [Compound 220] |
| B (EC1.5 1-25 μM) | < 200% | O=C(Nc1cccc2c(=O)cc(-c3cccc(OC(F)(F)F)c3)oc12)c1cnccn1 [Compound 203] |
| A (EC1-5<1.0) | > 200% | O=C(Nc1cccc2c(=O)cc(-c3ccccc3C(F)(F)F)oc12)c1cccc(CN2CCOCC2)n1 [Compound 315] |
| B (EC1.5 1-25 μM) | > 200% | O=C(Nc1cccc2c(=O)cc(-c3ccccc3C(F)(F)F)oc12)c1cccc(N2CCCC2)c1 [Compound 312] |
| C (EC1.5>25 μM) | < 200% | Cc1cnc(NC(=O)c2cccc3c(=O)cc(-c4cccnc4)oc23)s1 [Compound 239] |
| C (EC1.5>25 μM) | < 200% | O=C(Nc1cccc2c(=O)cc(-c3cccc(F)c3Cl)oc12)c1cscn1 [Compound 299] |
| B (EC1.5 1-25 μM) | < 200% | Cc1cnc(NC(=O)c2cccc3c(=O)cc(-c4cnccc4C(F)(F)F)oc23)s1 [Compound 310] |
| C (EC1.5>25 μM) | < 200% | O=C(Nc1cccc2c(=O)cc(-c3cc(F)ccc3F)oc12)c1cscn1 [Compound 293] |
| B (EC1.5 1-25 μM) | < 200% | O=C(Nc1cccc2c(=O)cc(-c3ccccc3C(F)(F)F)oc12)c1cccnc1 [Compound 262] |
| B (EC1.5 1-25 μM) | > 200% | O=C(Nc1cccc2c(=O)cc(-c3ccccc3Cl)oc12)c1cccc(CN2CCCC2)c1 [Compound 333] |
| C (EC1.5>25 μM) | < 200% | O=C(Nc1cccc2c(=O)cc(-c3cccc(C(F)(F)F)c3)oc12)c1ccnc(OC[C@@H](O)CO)c1 [Compound 245] |
